Measurements taken from paper PMC12400753 (Respiratory Research, 2025).

Tests used:
[1] = tested on: human precision cut lung slices from donors with pulmonary fibrosis; experiment: Fibrotic marker mRNA (qPCR) in cryopreserved PCLS from donors with pulmonary fibrosis; format: cell-based; details: 6 days
Description: Slices were snap frozen and processed for transcript analysis by quantitative PCR. […] Concurrently, we evaluated two well-established, clinical stage antifibrotic mechanisms in this setting: an αvβ1/6 inhibitor (bexotegrast, PLN-74809) and a PDE4B inhibitor (nerandomilast, BI 1015550).
Precision cut lung slices were obtained from Anabios (San Diego, CA) and collected in accordance with their ethics policy (https://anabios.com/ethics-statement/). Donor demographics are available in Additional File 1. Slices were thawed as per vendor instructions. Briefly, PCLS were thawed at 37 °C then transferred to media consisting of DMEM/F12, Antibiotic-Antimytotic, and Penicillin-Streptomycin. PCLS were gently rinsed then transferred to a larger dish. A small tissue sample was excised with a scalpel for immunohistochemistry and qPCR characterization. […] Final concentration of DMSO was 0.1%. Media and compound were replaced every two days for a total of 6 days. At the end of the experiment, slices were collected and snap frozen. Quantitative PCR: RNA was extracted using RNEasy columns. RNA was reverse transcribed using qScript XLT per manufacturer’s instructions. Genes of interest were assessed by qPCR using Perfecta SYBR Green on a StepOne Plus Thermocycler (ABI). Parameters were as follows: 95 °C 30 s, then 45 cycles of 95 °C for 5 s and 60 °C for 30 s.

[2] = tested on: fresh human PCLS from donors with pulmonary fibrosis; experiment: Secreted biomarkers in fresh PCLS from pulmonary fibrosis donors; format: cell-based; details: nintedanib 300 nM; 48 h
Description: Translationally, biomarker-based strategies for assessing aberrant extracellular matrix deposition and remodeling in the context of disease pathogenesis and compound efficacy have become increasingly relevant. For the PCLS gene expression studies, slices were preserved through slow cryogenic freezing of tissue. While this affords experimental flexibility, some physiological relevance is lost over the course of cryostorage and recovery (e.g., immune cell loss). To circumvent this, fresh PCLS from two donors with pulmonary fibrosis were generated and immediately placed into culture. For this experiment, well-established, secreted fibrotic markers that encompass fibrogenesis and tissue remodeling were measured: C3M (a marker of collagen III degradation and an indicant of ECM remodeling and tissue turnover), Pro-C3 (a neo-epitope fragment of collagen III and a marker of active fibrogenesis and fibrosis progression), and Pro-C6 (a neoepitope fragment of COLVIA3 and a marker of remodeling and wound healing). […] Media was then removed and analyzed for biomarker concentration.
PCLS cultures for secreted biomarker analysis were performed at Fraunhofer ITEM (Hanover, Germany) using tissue from pathologist qualified, pulmonary fibrosis patients. Tissue from individual donors and 2 lung regions were collected in accordance with policies approved by the Hanover Medical School ethics committee. Only fibrotic tissue was used for experiments. Region 1 consisted of subpleural tissue and Region 2 of central tissue. For each, lung lobes were filled with low-melting agarose then sectioned at 300 μm on a Krumdiek tissue slicer as described in Hesse et al., 2022. Slices were incubated in DMEM containing penicillin and streptomycin, two slices per region were used. […] Supernatant was collected and shipped to Nordic Bioscience (Herlev, Denmark) for C3M, Pro-C6 and Pro-C3 analysis. Donor information can be found in Additional File 1.

LPAR1 [3] = biological target: T1, LPAR1 (Homo sapiens, UniProt Q92633); experiment: LPAR1 calcium mobilization (reference compounds); format: cell-based
Experimental: B. C. LPAR1 Averaged Data (n=4) 200 […] 125 Nonspecific Binding 2nM 600 Specific Binding 150 1nM 100 75 400 100 50 200 25 50 0 0 -25 0 2 4 6 8 10 120 -10 -9 -8 -7 -6 -5[3H]-PIPE-497 (nM) 0 25 50 75 100 125 log[PIPE-497], M Time Figure S3. PIPE- 497 is a potent L P AR 1 receptor antagonist with properties suitable as an in vivo radioligand. A. L P AR 1 calcium mobilization data showing that PIPE-497 (non-tritiated) is a p ot ent […] B. Saturation binding curves of 3H-PIPE-497 to huma n LPAR1 membranes (n=2, error bars are SEM). C. Binding kinetics of 3H-PIPE-497 in recombinant membranes. […] with 10 μM PIPE- 497 th en add ed to membranes at different time points resulting in a residence time of 16.2 minutes (n=4, error bars are SEM). […] At 10 mg/kg, th e free p las ma exposure of BM S -986278 exceeds its measured IC 5 0 up until 4 h p ost d ose. […] IC50 LPAR1)

[4] = tested on: primary human lung fibroblasts; experiment: LPA-induced COL1A1 expression (immunocytochemistry); format: cell-based; details: Homo sapiens, Fibroblast; 1 µM LPA 8 h; compound overnight; read-out: IC50 inhibition of COL1A1 expression
Experimental: COL1A1 assay: Primary human lung fibroblasts were plated in a 96-well plate and allowed to adhere. […] The next day, cells were treated with 1 µM LPA and incubated for 8 h. After incubation in LPA, cells were immunostained for COL1A1. Cells were fixed in formalin for 10 min, washed 3 x with PBS, incubated in collagen 1A1 antibody (1:250 in blocking buffer, 0.1% Triton X-100 in PBS, 2 h), and washed 3 x with PBS. Secondary antibody solution (1:500) and Hoechst (1:2000) were added for 1 h, washed 3 x in PBS then imaged on a Nikon A1R confocal microscope at 10x magnification except human lung fibroblasts which were imaged at 4x. Collagen area was quantified with ImageJ and normalized to Hoechst per image.

LPAR1 [5] = biological target: T1, LPAR1; experiment: LPA-induced calcium mobilization in transiently transfected HEK293T cells; format: cell-based; set-up: host or cells: HEK293T; details: empirically determined, used for stimulation
Experimental: (§1) We had previously assessed selectivity against LPAR2 and 3 [11]. […] Human LPAR1-6 plasmids were each transiently transfected into HEK293T cells and the EC80 (effective concentration producing 80% maximal effect) for LPA activation empirically determined. Selectivity was then tested in a concentration response paradigm using a 3 h preincubation followed by LPA-induced calcium mobilization.
(§2) Plasmids containing human LPAR1-6 were obtained from Origene (Rockville, MD) and maxiprepped at Eton Biosciences (San Diego, CA). Transfection mix was prepared by adding Fugene 6 transfection mix to serum free media and 0.1 µg plasmid. After a 20 m incubation, HEK293T cells (ATCC, Manassas VA) were lifted with Accutase and added to the Fugene mix at a final concentration of 0.5 × 10^4 cells/well. Cells were then plated on black clear bottom 96-well plates and incubated overnight in a 37 °C, 5% CO2 incubator. […] During the last hour of incubation, media was removed and replaced with Fluo-4 NW calcium assay dye prepared as per manufacturer’s recommendations in assay buffer. Agonist plates containing LPA were prepared for individual receptor subytpes using their respective EC80. Calcium mobilization was measured as per manufacturer’s directions on a Flexstation 3 (Molecular Devices, San Jose, CA).

human LPAR5 = biological target: T2, human LPAR5 (Homo sapiens, UniProt Q9H1C0); experiment: as above; format: cell-based; details: empirically determined, used for stimulation
T2 construct: host or cells: HEK293T
Experimental: as §1, §2

human LPAR4 = biological target: T3, human LPAR4 (Homo sapiens, UniProt Q99677); experiment: as above; format: cell-based; details: empirically determined, used for stimulation
T3 construct: host or cells: HEK293T
Experimental: as §1, §2

human LPAR2 = biological target: T4, human LPAR2 (Homo sapiens, UniProt Q9HBW0); experiment: as above; format: cell-based; details: empirically determined, used for stimulation
T4 construct: host or cells: HEK293T
Experimental: as §1, §2

human LPAR6 = biological target: T5, human LPAR6 (Homo sapiens, UniProt P43657); experiment: as above; format: cell-based; details: empirically determined, used for stimulation
T5 construct: host or cells: HEK293T
T5 sequence (P43657 1-344): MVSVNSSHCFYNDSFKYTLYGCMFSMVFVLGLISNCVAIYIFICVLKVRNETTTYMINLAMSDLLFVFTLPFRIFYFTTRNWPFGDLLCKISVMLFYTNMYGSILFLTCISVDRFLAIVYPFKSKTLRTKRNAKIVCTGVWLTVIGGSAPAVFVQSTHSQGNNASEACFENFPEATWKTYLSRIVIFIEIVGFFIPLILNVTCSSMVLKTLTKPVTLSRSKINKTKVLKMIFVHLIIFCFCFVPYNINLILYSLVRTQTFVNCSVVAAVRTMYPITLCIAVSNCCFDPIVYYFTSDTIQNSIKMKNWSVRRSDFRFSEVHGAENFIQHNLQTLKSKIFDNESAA
Experimental: as §1, §2

human LPAR3 = biological target: T6, human LPAR3 (Homo sapiens, UniProt Q9UBY5); experiment: as above; format: cell-based; details: empirically determined, used for stimulation
T6 construct: host or cells: HEK293T
T6 sequence (Q9UBY5 1-353): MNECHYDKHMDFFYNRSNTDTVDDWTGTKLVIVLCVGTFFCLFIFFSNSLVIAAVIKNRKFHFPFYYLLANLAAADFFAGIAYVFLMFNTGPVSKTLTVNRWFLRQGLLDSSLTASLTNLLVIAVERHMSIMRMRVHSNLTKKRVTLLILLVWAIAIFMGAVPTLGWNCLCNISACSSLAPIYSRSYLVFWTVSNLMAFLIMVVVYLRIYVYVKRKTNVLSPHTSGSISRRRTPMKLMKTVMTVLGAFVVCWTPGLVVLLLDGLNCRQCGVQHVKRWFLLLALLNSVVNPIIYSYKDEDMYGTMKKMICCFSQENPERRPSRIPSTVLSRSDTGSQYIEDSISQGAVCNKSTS
Experimental: as §1, §2

[6] = tested on: bleomycin-induced lung fibrosis; experiment: Systemic (subcutaneous) bleomycin mouse model; format: in vivo; details: 30 mg/kg oral twice a day, therapeutic
Experimental: Mice were injected subcutaneously with bleomycin (0.1 units/day), on a schedule of 5 days on/2 days off to induce fibrosis. […] Dosing was maintained until study end, at which point lung tissues were collected. The right lobe was snap frozen and processed for collagen analysis for hydroxyproline; the left lobe was sectioned and stained with Masson’s trichrome stain for histological assessment of tissue collagen. This study was conducted by Inotiv (West Lafayette, IN). Forty-four female 9 week old C57Bl/6 mice (Jackson Labs) were provided standard chow (Envigo, Cat #: 8940), housed under standard conditions, and allowed to acclimate for > 3 days prior to enrollment. Prior to start, mice were weighed and placed into balanced enrollment groups. Four days prior to start, mice were anesthetized, dorsal fur shaved and removed with depilatory agent, and two circles (~ 1.5 cm diameter) heat-branded on their dorsal abdomen. Fur was removed as needed for the balance of the study to ensure consistent location of s.c. injections. Beginning on day 0 and through day 26, mice were anesthetized with isoflurane and administered 0.9% NaCl or bleomycin injections (100 µl/injection, s.c.) into each of the circles (2 injections/mouse/d) on a 5 day on/2 day off paradigm. Mice were administered 0.9% NaCl (vehicle) or bleomycin (0.1 U) with bleomycin doses split evenly between the two circles (i.e., 0.05 U/circle). […] Weight measures and health observations were made daily. On day 27, mice were dosed to enable trough blood/plasma collection on day 28, which was collected via retro-orbital approach under isoflurane anesthesia. Following blood collection, mice were administered vehicle or compound on a timetable as appropriate to enable a peak blood collection 2 h postdose. At the time of sacrifice, mice were anesthetized with pentobarbital, a tracheotomy performed and interfaced with a positive pressure ventilator providing 100% O2. The mouse’s chest was then opened, and a needle interfaced with an infusion pump introduced to the right ventricle. […] The lungs were then harvested, immediately immersed in ice-cold 0.9% NaCl, gross dissected and subjected to morphological analyses. Tissue samples will be processed for biochemical and/or histological analyses as described below. Masson’s Trichrome Blue stained slides were subjected to histological analyses using color segmentation analysis for lung fibrosis. Frozen lung samples underwent hydroxyproline analysis as described below. Lung tissue processing – following exsanguination and flushing of the pulmonary circulation to clear blood, the lungs were removed, placed in ice-cold 0.9% NaCl and processed on wet ice. Extraneous tissue was removed and whole lung weight recorded. […]

T1 sequence (Q92633 whole entry): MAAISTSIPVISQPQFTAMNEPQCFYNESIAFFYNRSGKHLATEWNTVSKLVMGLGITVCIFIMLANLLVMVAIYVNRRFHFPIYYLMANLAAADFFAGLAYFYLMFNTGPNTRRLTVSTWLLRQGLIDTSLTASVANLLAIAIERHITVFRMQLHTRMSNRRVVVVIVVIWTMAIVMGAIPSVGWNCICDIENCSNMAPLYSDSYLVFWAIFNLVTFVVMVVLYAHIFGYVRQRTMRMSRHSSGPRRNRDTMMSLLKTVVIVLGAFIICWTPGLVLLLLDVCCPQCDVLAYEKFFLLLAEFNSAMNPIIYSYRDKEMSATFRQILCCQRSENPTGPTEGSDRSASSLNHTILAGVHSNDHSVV
T3 sequence (Q99677 whole entry): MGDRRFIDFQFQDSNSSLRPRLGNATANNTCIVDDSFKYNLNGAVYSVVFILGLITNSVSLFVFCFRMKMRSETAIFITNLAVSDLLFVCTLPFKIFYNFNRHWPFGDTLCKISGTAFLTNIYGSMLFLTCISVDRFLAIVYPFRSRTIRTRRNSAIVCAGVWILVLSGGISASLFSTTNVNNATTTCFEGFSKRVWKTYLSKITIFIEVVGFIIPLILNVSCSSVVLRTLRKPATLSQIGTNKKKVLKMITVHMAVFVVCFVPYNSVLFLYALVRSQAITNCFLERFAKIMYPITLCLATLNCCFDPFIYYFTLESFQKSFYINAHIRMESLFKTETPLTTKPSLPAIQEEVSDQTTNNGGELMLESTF
T4 sequence (Q9HBW0 whole entry): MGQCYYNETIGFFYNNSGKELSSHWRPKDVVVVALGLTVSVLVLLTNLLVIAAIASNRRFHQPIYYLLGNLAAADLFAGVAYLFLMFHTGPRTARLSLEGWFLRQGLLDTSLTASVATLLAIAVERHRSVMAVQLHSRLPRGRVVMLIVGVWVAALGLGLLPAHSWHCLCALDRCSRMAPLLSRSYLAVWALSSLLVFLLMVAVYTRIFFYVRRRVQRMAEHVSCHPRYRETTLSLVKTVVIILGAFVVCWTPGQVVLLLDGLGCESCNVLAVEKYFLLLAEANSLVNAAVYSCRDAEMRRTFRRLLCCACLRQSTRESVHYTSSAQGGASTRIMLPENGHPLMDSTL
T2 sequence (Q9H1C0 whole entry): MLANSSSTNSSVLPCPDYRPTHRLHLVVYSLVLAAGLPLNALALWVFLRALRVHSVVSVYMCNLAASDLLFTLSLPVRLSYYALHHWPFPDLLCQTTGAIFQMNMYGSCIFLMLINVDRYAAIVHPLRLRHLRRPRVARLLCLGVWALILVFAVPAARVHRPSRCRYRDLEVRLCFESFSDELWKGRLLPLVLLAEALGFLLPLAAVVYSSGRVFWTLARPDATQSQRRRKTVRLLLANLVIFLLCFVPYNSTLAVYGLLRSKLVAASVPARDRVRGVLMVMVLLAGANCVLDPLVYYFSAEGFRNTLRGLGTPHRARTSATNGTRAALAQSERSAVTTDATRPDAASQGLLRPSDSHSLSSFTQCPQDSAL

COCCN(CCCCc1ccc2c(n1)NCCC2)CC[C@H](Nc1ncnc2ccccc12)C(=O)O [bexotegrast]
COL3A1 mRNA expression vs vehicle ([1]; 300 nM, P 0.1827 (not significant)): reduces
SERPINE1 mRNA expression vs vehicle ([1]; 300 nM, P 0.4056 (not significant)): reduces
LPAR1 mRNA expression vs vehicle ([1]; 300 nM, P 0.8283): unchanged
COL1A1 mRNA expression vs vehicle ([1]; 300 nM, P < 0.05): significantly less
TIMP-1 mRNA expression vs vehicle ([1]; 300 nM, P < 0.05): significantly lower

COC(=O)c1ccc2c(c1)NC(=O)/C2=C(\Nc1ccc(N(C)C(=O)CN2CCN(C)CC2)cc1)c1ccccc1 [nintedanib, reference compound]
secreted C3M [2]: significant reduction
secreted Pro-C3 [2]: did not show a significant decrease
secreted Pro-C6 [2]: reduced

CCCN(C)C(=O)OCc1c(-c2ccc(O[C@H]3CCC[C@H](C(=O)O)C3)c(C)n2)nnn1C [BMS-986278, reference compound]
IC50 (LPAR1 [3]): 0.0804 µM
IC50 [4]: 0.0306 µM

[O-][S+]1CCc2nc(N3CCC(c4ncc(Cl)cn4)CC3)nc(NC3(CO)CCC3)c21 (stereo not shown) [nerandomilast]
COL3A1 mRNA expression vs vehicle ([1]; 10 µM, P 0.1621 (not significant)): reduces
TIMP1 mRNA expression vs vehicle ([1]; 10 µM, P 0.6976 (not significant)): reduces
SERPINE1 mRNA expression vs vehicle ([1]; 10 µM, P 0.8986 (not significant)): reduces
COL1A1 mRNA expression vs vehicle ([1]; 10 µM, P < 0.05): significantly less

lysophosphatidic acid [LPA, reference compound]
LPA EC80 (LPAR1 [5]): 5 µM
LPA EC80 (human LPAR5): 1 µM
LPA EC80 (human LPAR4): 10 µM
LPA EC80 (human LPAR2): 5 µM
LPA EC80 (human LPAR6): 13 µM
LPA EC80 (human LPAR3): 10 µM

Cc1noc(-c2ccc(-c3ccc(C4(C(=O)O)CC4)cc3)cc2)c1NC(=O)O[C@H](C)c1ccccc1 [BMS-986020, reference compound]
lung hydroxyproline compared to bleomycin/vehicle [6]: no reduction in hydroxyproline
reduction in tissue collagen fraction (TCF), trichrome ([6]; p = 0.2723): 62%
